Data set [1] in a line: Stability of −SH groups toward oxidation at different pH. It counts as physicochemical. As to the method: Furthermore, the stability of the thiolated CD was measured under different pH. In short, per-6-thiolated α-CD (0.25% m/v) was hydrated in water, and pH was adjusted to 4 and 5 with acetate buffer (50 mM), to 6 with phosphate buffer (50 mM), and to 7.2 with Tris buffer (50 mM). Test samples were kept under continuous stirring at 37 °C. After specific time intervals, aliquots of 500 μL were taken. Any further reaction was quenched by adding 50 μL of 1 M HCl to each aliquot.[18] Sulfhydryl groups were quantified using Ellman’s reagent.

The nature of data set [2]: Quantification of −SH content with Ellman's reagent. It is filed as physicochemical. As to the method:
Per-6-thiolated α-CD was assessed for the amount of thiol by using Ellman’s reagent.[16] The calibration curve was established using L-cysteine.
For orientation: DTNB colorimetry detects thiols as they appear.

Data set [3] relates to human colorectal carcinoma (Caco-2) cells. Kind of data set: Resazurin cytotoxicity assay on Caco-2 cells. It counts as cell-based. To be noted: 0.5% (m/v), within 24 h. As to the method:
(§1) The impact of per-6-thiolated α-CD on viability of human colorectal carcinoma (Caco-2) cells was evaluated by resazurin assay to confirm the safety of the newly synthesized oligomer. For this purpose, Caco-2 cells were obtained from the European Collection of Cell Cultures (Salisbury, UK). Caco-2 cells at a density of 2.5 × 10^4 cells/well were suspended in 500 μL of MEM and seeded to a 24-well plate. The plate was incubated at an atmosphere of CO2 (5%) and relative humidity (95%) at 37 °C for 2 weeks. During this culture period, the medium was replaced on alternative days.
(§2) Toxicity assay was performed to investigate the cytotoxic potential of per-6-thiolated α-CD by quantifying resorufin formed by the reduction of resazurin. On the day of the experiment, cells of around 80% confluency were washed two times with preheated 10 mM PBS pH 7.4. The oligomer solutions (500 μL) of per-6-thiolated and unmodified α-CD (0.5% m/v) in white MEM, 4% (v/v) Triton X-100 acting as a negative control and white MEM acting as a positive control were transferred to the cell culture wells.
(§3) After 3 and 24 h, test samples were withdrawn, and the cells were washed two times with preheated PBS. In the following, 500 μL of resazurin (2.2 μM) solution was added, and cells were further incubated for 3 h. Aliquots (100 μL) were inserted to a 96-well plate, and the fluorescence was analyzed at emission and excitation wavelength of 590 and 540 nm utilizing a microplate reader (M-200 spectrometer; Tecan infinite, Austria). Cell viability of cells was measured using eq 1 [drawing 1] 1
(The colour change of resazurin is a common sign of viable cells or microbes.)

Data set [4] is described as follows: Resazurin cytotoxicity assay on Caco-2 cells. It counts as cell-based, human. To be noted: human, read-out: cell viability. As to the method:
as §1, §2, §3

The nature of data set [5]: pKa of −SH groups by photometric method. It is filed as physicochemical. To be noted: 0.001 M HCl containing 0.1 M NaCl, titrated with 0.01% NaOH; absorbance at 242 nm, 0.1% m/v. The protocol: As the stability of sulfhydryl groups depends on thiolate anions concentration, the pKa value of −SH groups on per-6-thiolated α-CD was determined via an established photometric method with some modifications.[17] Briefly, ionic strength was stabilized by dissolving per-6-thiolated α-CD (0.1% m/v) in 0.001 M HCl containing 0.1 M NaCl. Increasing volumes of 0.01% NaOH were added to per-6-thiolated CD solutions that were continuously measured regarding pH and absorbance at 242 nm. The pKa was determined by plotting pH versus −log[(Amax – Ai)/Ai].

A short description of data set [6]: Phase-solubility study with FUR (apparent stability constant KC). To be noted: aqueous solution, room temperature, 1:1 complex. It is filed as physicochemical. As to the method:
The suspension was homogenized at room temperature using a thermomixer (Thermomixer C, Eppendorf, Austria) at 750 rpm until equilibrium in solubility was reached (3–4 days).

Data set [7] deals with Caco-2 cell monolayer. Kind of data set: TEER measurement on the Caco-2 cell monolayer. Particulars: for decrease in TEER: Caco-2 monolayer, during 3 h permeation experiment; for TEER regained in comparison to initial values: after cell washing and incubating with MEM. It counts as cell-based, human. As to the method: Permeation studies on the Caco-2 cell monolayer were executed as described previously.[23] Caco-2 cells at a density of 0.6 × 10^5 cells/cm^2 were seeded onto 24-well plates with ThinCert inserts (pore-size: 400 μm, Greiner Bio-One, Kremsmünster, Austria). Cells were cultured in MEM containing 20% FCS in an atmosphere of 5% CO2 and 95% humidity at 37 °C. The medium was renewed every other day for 21 days. For permeation studies, only cell monolayers showing a transepithelial electrical resistance (TEER) in the range of 300–500 Ω cm^2 were applied, which were determined with an EVOM instrument. TEER was also determined at time point 3 h representing the end of the permeation experiment and after 24 and 48 h to confirm monolayer integrity. Before the start of the experiment, cells were washed with PBS. Thereafter, 500 μL of MEM without FCS was transferred to the donor chamber and 1000 μL of the same medium was transferred to an accepter chamber.

SMILES strings stand for the structures.

By viability is commonly meant a read-out of living cells in per cent, often relative to untreated cells. A word on the pKa: it is the pH at which an ionisable group is half protonated. `O[C@@H]1[C@@H](O)[C@H]2O[C@H]3[C@H](O)[C@@H](O)[C@@H](O[C@H]4[C@H](O)[C@@H](O)[C@@H](O[C@H]5[C@H](O)[C@@H](O)[C@@H](O[C@H]6[C@H](O)[C@@H](O)[C@@H](O[C@H]7[C@H](O)[C@@H](O)[C@@H](O[C@@H]1[C@@H](CS)O2)O[C@@H]7CS)O[C@@H]6CS)O[C@@H]5CS)O[C@@H]4CS)O[C@@H]3CS` [per-6-thiolated α-CD, per-6-thiolated α-cyclodextrin]: the “−SH groups oxidized” value in data set [1] (after 3 h at pH 5, 37 °C) is 15%. In addition, the “stability of −SH groups” value in data set [1] (pH 4, 37 °C, 0.25% m/v) is listed as “stable”; in data set [1] (pH ≤ 4), “stable”. In addition, the “amount of −S–S– groups on the CD backbone” value in data set [2] was 786 ± 139 µmol/g. The “amount of −SH groups on the CD backbone” value in data set [2] (Ellman's reagent) came out at 4244 ± 402 µmol/g. Besides, the cytotoxicity result in data set [3] was “not cytotoxic”. Besides, in data set [4] (after 3 h), the viability at 3 h, 0.5 % (m/v) is over 88%. The viability at 24 h, 0.5 % (m/v) in data set [4] (after 24 h) is over 88%. Also, the pKa in data set [5] was 8.1. Moreover, in data set [6], the “apparent stability constant (KC) with FUR” value came to 1090.9 M^–1. Moreover, the “decrease in TEER” value in data set [7] was “up to 28%”. The “TEER regained in comparison to initial values” in data set [7] (after 24 h) came to 82%; in data set [7] (after 48 h) it was 90%.

As to `OC[C@H]1O[C@@H]2O[C@H]3[C@H](O)[C@@H](O)[C@@H](O[C@H]4[C@H](O)[C@@H](O)[C@@H](O[C@H]5[C@H](O)[C@@H](O)[C@@H](O[C@H]6[C@H](O)[C@@H](O)[C@@H](O[C@H]7[C@H](O)[C@@H](O)[C@@H](O[C@H]1[C@H](O)[C@H]2O)O[C@@H]7CO)O[C@@H]6CO)O[C@@H]5CO)O[C@@H]4CO)O[C@@H]3CO` [α-CD, α-cyclodextrin, reference compound], the “apparent stability constant (KC) with FUR” value in data set [6] is given as 1050.7 M^–1. Also, in data set [7], the “decrease in TEER” value is on record as about 15%.

The record behind these values is article PMC7205388, “Per-6-Thiolated Cyclodextrins: A Novel Type of Permeation Enhancing Excipients for BCS Class IV Drugs” (ACS Applied Materials & Interfaces, 2020).
